Here are results for twelve molecules from ChEMBL document CHEMBL1921749, “5-Lipoxygenase-activating protein (FLAP) inhibitors. Part 4: development of 3-[3-tert-butylsulfanyl-1-[4-(6-ethoxypyridin-3-yl)benzyl]-5-(5-methylpyridin-2-ylmethoxy)-1H-indol-2-yl]-2,2-dimethylpropionic acid (AM803), a potent, oral, once daily FLAP inhibitor” (J Med Chem, 2011).

The structures appear in SMILES notation.

Broadly, the IC50 is the concentration that inhibits the measured activity by half. As a reminder, the Cmax is the peak of the concentration-time curve. The AUC is concentration integrated over time. Low values mean less exposure, high ones more exposure. In general, bioavailability refers to the share of a dose that reaches the circulation, judged against a reference dose that is usually intravenous. Higher therefore signals much systemic uptake. By clearance is commonly meant a measure of how efficiently the substance is removed, as volume per time. Lower therefore signals a low capacity for elimination.

The target in series [1] is T1, Arachidonate 5-lipoxygenase-activating protein (Homo sapiens, UniProt P20292).
T1 sequence (P20292 whole entry): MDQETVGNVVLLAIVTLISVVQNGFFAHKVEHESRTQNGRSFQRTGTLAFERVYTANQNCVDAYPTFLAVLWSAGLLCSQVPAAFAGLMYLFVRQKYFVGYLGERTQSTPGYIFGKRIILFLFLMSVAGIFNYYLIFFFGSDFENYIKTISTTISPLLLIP
In words: Inhibition of FLAP in human peripheral leukocytes assessed as inhibition of calcium ionophore A23187-induced LTB4 production after 1 hr by ELISA in absence of human serum albumin. The format is cell-based.

The target in series [2] is T1, Arachidonate 5-lipoxygenase-activating protein. The series can be described thus: Inhibition of FLAP in human peripheral leukocytes assessed as inhibition of calcium ionophore A23187-induced LTB4 production after 5 mins by ELISA in absence of human serum albumin. The format is cell-based. (An ELISA detects its analyte on a solid surface through an enzyme-linked reagent.)

The target is the same in series [3]. In words: Inhibition of FLAP in human peripheral leukocytes assessed as inhibition of calcium ionophore A23187-induced LTB4 production after 10 mins by ELISA in presence of 0.5% human serum albumin. It counts as cell-based.
Series [4] shares this target. In words: Inhibition of FLAP in human whole blood assessed as inhibition of calcium ionophore A23187-induced LTB4 production preincubated for 5 hrs by ELISA.
The target is the same in series [5]. In words: Inhibition of FLAP in human whole blood assessed as inhibition of calcium ionophore A23187-induced LTB4 production preincubated for 15 mins by ELISA.
The target is the same in series [6]. The series can be described thus: Inhibition of FLAP in human peripheral leukocytes assessed as inhibition of calcium ionophore A23187-induced LTB4 production after 10 mins by ELISA. It counts as cell-based.
Series [7] shares this target. In words: Inhibition of FLAP in human peripheral leukocytes assessed as inhibition of calcium ionophore A23187-induced LTB4 production after 3 hr by ELISA in presence of 0.5% human serum albumin. The format is cell-based.
Series [8] has the same target. In words: Displacement of [3H]-3-[5-(pyrid-2-ylmethoxy)-3-tert-butylthio-1-benzylindol-2-yl]-2,2-dimethylpropionic acid from FLAP in human polymorphonuclear cell membranes after 1 hr by scintillation counting. A general note: Displacement assays read how much labelled ligand stays bound in the presence of the test substance.
For series [9], the target named is T2, Prostaglandin G/H synthase 1 (Homo sapiens, UniProt P23219). In words: Inhibition of COX1-mediated TXB2 production in human whole blood after 15 mins by competitive enzyme immunoassay.
T2 sequence (P23219 whole entry): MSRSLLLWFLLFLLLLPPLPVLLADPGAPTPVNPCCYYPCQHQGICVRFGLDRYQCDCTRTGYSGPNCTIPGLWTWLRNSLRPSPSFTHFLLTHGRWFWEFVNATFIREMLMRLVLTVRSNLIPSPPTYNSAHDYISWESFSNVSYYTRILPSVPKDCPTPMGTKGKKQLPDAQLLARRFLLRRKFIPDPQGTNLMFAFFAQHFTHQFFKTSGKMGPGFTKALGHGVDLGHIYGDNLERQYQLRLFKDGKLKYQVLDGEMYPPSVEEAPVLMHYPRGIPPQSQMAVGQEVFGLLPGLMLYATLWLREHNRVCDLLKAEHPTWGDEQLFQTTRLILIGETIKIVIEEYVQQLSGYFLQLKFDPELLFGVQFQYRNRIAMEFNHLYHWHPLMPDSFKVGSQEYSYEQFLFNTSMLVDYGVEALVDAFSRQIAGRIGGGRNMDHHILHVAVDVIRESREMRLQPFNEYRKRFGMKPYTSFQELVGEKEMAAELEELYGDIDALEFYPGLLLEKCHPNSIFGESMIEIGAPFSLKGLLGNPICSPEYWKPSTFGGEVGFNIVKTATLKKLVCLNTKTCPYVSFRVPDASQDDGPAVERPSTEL
Series [10] addresses T2, Prostaglandin G/H synthase 1. In words: Inhibition of COX1-mediated TXB2 production in human whole blood after 5 hrs by competitive enzyme immunoassay.
In series [11] the target is Cytochrome P450 2D6 (Homo sapiens, UniProt P10635). In words: Inhibition of human CYP2D6. The format is ADME.
Sequence of Cytochrome P450 2D6 (P10635 whole entry): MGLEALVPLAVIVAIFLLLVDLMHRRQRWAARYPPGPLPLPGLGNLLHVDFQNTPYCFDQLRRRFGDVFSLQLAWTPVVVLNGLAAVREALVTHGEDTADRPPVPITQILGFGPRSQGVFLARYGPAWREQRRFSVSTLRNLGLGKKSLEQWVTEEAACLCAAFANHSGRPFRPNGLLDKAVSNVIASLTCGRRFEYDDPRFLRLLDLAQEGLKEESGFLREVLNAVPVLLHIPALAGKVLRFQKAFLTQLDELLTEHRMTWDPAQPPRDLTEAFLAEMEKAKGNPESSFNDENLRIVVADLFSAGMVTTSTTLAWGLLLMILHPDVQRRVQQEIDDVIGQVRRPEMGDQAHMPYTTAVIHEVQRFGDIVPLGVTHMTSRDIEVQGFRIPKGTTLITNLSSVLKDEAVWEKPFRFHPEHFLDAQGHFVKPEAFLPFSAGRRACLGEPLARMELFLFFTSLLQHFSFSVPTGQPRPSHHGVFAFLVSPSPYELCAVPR
Series [12] has as its target Cytochrome P450 2C9 (Homo sapiens, UniProt P11712). In words: Inhibition of human CYP2C9. The format is ADME.
Series [13] has as its target Cytochrome P450 3A4 (Homo sapiens, UniProt P08684). In words: Inhibition of human CYP3A4. It counts as ADME.
Series [14] concerns the target T1, Arachidonate 5-lipoxygenase-activating protein. In words: Inhibition of FLAP in human whole blood assessed as inhibition of calcium ionophore A23187-induced LTB4 production preincubated for 11 hrs by ELISA.
For series [15], the target named is T3, Arachidonate 5-lipoxygenase-activating protein (Rattus norvegicus, UniProt P20291).
T3 sequence (P20291 whole entry): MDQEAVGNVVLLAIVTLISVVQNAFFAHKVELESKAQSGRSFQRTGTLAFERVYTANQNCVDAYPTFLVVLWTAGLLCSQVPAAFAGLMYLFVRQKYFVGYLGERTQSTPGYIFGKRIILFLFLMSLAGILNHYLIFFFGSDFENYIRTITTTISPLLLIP
In words: Inhibition of FLAP in rat whole blood assessed as inhibition of calcium ionophore A23187-induced LTB4 production preincubated for 4 hrs by ELISA. The format is tissue-based.

Series [16] deals with T3, Arachidonate 5-lipoxygenase-activating protein. In words: Inhibition of FLAP in rat whole blood assessed as inhibition of calcium ionophore A23187-induced LTB4 production preincubated for 15 mins by ELISA. It counts as tissue-based.
The target of series [17] is T4, Arachidonate 5-lipoxygenase-activating protein (Homo sapiens) (UniProt P20292).
T4 sequence (whole entry): T1 sequence (P20292 whole entry)
In words: Ratio of IC50 for FLAP in human whole blood assessed as inhibition of calcium ionophore A23187-induced LTB4 production preincubated for 15 mins to IC50 for FLAP in human whole blood assessed as inhibition of calcium ionophore A23187-induced LTB4 production preincubated for 5 hrs.

A short description of series [18]: Cmax in Sprague-Dawley rat at 10 mg/kg, po. The format is ADME, organism-based. Also on record: dose 10 mg/kg, route oral. Particulars: in vivo.
Series [19] is described as follows: Terminal half life in Sprague-Dawley rat at 2 mg/kg, iv. The settings on record: in vivo, read-out: beta t1/2 (converted). Also noted: dose 2 mg/kg, route intravenous. It counts as ADME, organism-based.
The nature of series [20]: AUC in Sprague-Dawley rat at 10 mg/kg, po. It counts as ADME, organism-based. Particulars: plasma. Also noted: dose 10 mg/kg, route oral.
Series [21] is described as follows: Oral bioavailability in Sprague-Dawley rat at 10 mg/kg. It counts as ADME, organism-based. The settings on record: in vivo.
Series [22] can be described thus: Volume of distribution at steady state in Sprague-Dawley rat at 2 mg/kg, iv. Also on record: dose 2 mg/kg, route intravenous. The format is ADME, organism-based. Particulars: in vivo, read-out: Vdss.
Series [23] can be described thus: Clearance in Sprague-Dawley rat at 2 mg/kg, iv. It counts as ADME, organism-based. Also noted: dose 2 mg/kg, route intravenous. The settings on record: in vivo.
The target of series [24] is T2, Prostaglandin G/H synthase 1. In words: Inhibition of COX1-mediated TXB2 production in human whole blood after 30 mins by competitive enzyme immunoassay.

Sequence of Cytochrome P450 2C9 (P11712 whole entry): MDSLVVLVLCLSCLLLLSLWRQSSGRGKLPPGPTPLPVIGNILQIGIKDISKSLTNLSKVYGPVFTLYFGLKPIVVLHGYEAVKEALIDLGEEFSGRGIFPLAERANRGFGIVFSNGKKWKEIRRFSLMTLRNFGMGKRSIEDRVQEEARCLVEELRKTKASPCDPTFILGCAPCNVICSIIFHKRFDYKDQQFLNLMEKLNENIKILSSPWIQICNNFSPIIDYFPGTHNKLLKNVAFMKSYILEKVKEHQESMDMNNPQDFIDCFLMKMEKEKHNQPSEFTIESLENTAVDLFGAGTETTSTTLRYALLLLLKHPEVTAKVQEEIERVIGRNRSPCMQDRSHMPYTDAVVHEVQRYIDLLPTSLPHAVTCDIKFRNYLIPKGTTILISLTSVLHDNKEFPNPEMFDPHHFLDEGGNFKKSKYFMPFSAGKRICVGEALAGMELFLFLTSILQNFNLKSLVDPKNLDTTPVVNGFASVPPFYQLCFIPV
Sequence of Cytochrome P450 3A4 (P08684 whole entry): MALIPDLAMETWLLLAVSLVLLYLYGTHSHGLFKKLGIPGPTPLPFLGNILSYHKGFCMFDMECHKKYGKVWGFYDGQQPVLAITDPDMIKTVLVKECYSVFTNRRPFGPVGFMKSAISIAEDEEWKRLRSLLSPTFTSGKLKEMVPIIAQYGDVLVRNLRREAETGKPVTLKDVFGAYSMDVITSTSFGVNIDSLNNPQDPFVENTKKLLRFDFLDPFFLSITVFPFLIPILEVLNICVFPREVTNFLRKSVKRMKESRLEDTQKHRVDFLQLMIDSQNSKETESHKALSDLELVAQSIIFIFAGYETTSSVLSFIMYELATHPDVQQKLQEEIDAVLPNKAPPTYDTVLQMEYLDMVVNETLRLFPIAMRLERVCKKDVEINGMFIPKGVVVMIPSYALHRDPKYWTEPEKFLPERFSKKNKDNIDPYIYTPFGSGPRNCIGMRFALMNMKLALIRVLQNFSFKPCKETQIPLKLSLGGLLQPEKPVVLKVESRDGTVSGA

Regarding `COc1ccc(-c2ccc(Cn3c(CC(C)(C)C(=O)O)c(SC(C)(C)C)c4cc(OCc5ccccn5)ccc43)cc2)cn1`, the IC50 in [1] worked out at 1.1 nM; in [2] it was 1.2 nM; in series [3] it was 10 nM; in series [4] it was 149 nM; in [5], 349 nM; in [6], 0.5 nM. The IC50 in series [7] turned out to be 14 nM.
In the case of `COc1ccc(-c2ccc(Cn3c(CC(C)(C)C(=O)O)c(SC(C)(C)C)c4cc(OCc5ccc(C)cn5)ccc43)cc2)cn1`, the IC50 was found to be 1.7 nM in series [8]; 87 nM in series [4]; 12300 nM in [9]; 328 nM in series [5]; 0.5 nM in series [6]; 17300 nM in series [10].
As for `Cc1ccc(COc2ccc3c(c2)c(SC(C)(C)C)c(CC(C)(C)C(=O)O)n3Cc2ccc(-c3ccc(C)cn3)cc2)nc1`, the IC50 in [11] was greater than 50000 nM; in series [8] it was 2.2 nM; in series [4], 130 nM; in [12], 12000 nM; in series [13], 8500 nM; in series [5], 283 nM. Further, the IC50 in [6] worked out at 0.5 nM.
In the case of `CC(C)(C)Sc1c(CC(C)(C)C(=O)O)n(Cc2ccc(Cl)cc2)c2ccc(OCc3ccc4ccccc4n3)cc12` [QUIFLAPON SODIUM], the IC50 in series [14] came out at 80 nM; in series [8] it was 1.9 nM; in series [1], 1 nM; in series [2], 1 nM; in series [3], 66 nM; in series [15] it was 10 nM. For the same molecule, the IC50 in series [4] worked out at 108 nM; in series [16], 117 nM; in series [5], 536 nM; in series [6], 0.5 nM; in [7], 12 nM.
Take `COc1ccc(-c2ccc(Cn3c(CC(C)(C)C(=O)O)c(SC(C)(C)C)c4cc(OCc5ccc6cc(F)ccc6n5)ccc43)cc2)cn1`: the IC50 in series [8] worked out at 7.6 nM; in [4] it was 289 nM; in series [5] it was 747 nM; in series [6], 0.7 nM. The Ratio IC50 in series [17] turned out to be 2.
Regarding `Cc1ccc(COc2ccc3c(c2)c(SC(C)(C)C)c(CC(C)(C)C(=O)O)n3Cc2ccc(-c3ccc(=O)[nH]c3)cc2)nc1`, the IC50 in series [8] is 8.3 nM; in series [4] it was 1280 nM; in series [5], 10000 nM; in series [6], 94 nM. Also, the Ratio IC50 in [17] was 8.
In series [18], `Cc1ccc(COc2ccc3c(c2)c(SC(C)(C)C)c(CC(C)(C)C(=O)[O-])n3Cc2ccc(-c3ccc(C)cn3)cc2)nc1.[Na+]` showed a Cmax of 14.6 µM. In addition, the half-life in series [19] is 1 h. Besides, the AUC in series [20] was 26000 ng·h/mL. In series [21], this molecule registered a bioavailability of 40%. Further, in [22], the Vd stood at 0.16 L/kg. This molecule displayed a clearance in [23] of 3 mL/min/kg.
Regarding `CC(C)c1ccc2c(c1)c(SC(C)(C)C)c(CC(C)(C)C(=O)O)n2Cc1ccc(Cl)cc1`, the IC50 was 1000 nM in [14]; 5.7 nM in [1]; 2.2 nM in [2]; 19 nM in [3]; 1100 nM in [4]; 1400 nM in [5]. In [7], the IC50 was 27 nM.
Turning to `Cc1ccc(COc2ccc3c(c2)c(SC(C)(C)C)c(CC(C)(C)C(=O)[O-])n3Cc2ccc(-c3ccc(F)cn3)cc2)nc1.[Na+]`, the Cmax in [18] is 23.3 µM. Besides, the half-life in series [19] was 1.9 h. In [20], this molecule yielded an AUC of 77000 ng·h/mL. In addition, the bioavailability in [21] amounted to 100%. For the same molecule, in [22], the Vd was determined as 0.38 L/kg. This molecule also returned a clearance in [23] of 4 mL/min/kg.
For `COc1cnc(-c2ccc(Cn3c(CC(C)(C)C(=O)O)c(SC(C)(C)C)c4cc(OCc5ccc(C)cn5)ccc43)cc2)nc1`, the IC50 was greater than 50000 nM in [11]; 81 nM in [4]; 4500 nM in series [12]; 8800 nM in [13]; 161 nM in series [5]; 25000 nM in series [24]. Moreover, the IC50 in series [6] amounted to 0.6 nM.
As to `COc1cnc(-c2ccc(Cn3c(CC(C)(C)C(=O)[O-])c(SC(C)(C)C)c4cc(OCc5ccc(C)cn5)ccc43)cc2)nc1.[Na+]`, the Cmax in [18] is 30.6 µM. In addition, in series [19], the half-life is 1.7 h. In series [20], the AUC is 63000 ng·h/mL. Moreover, the bioavailability in series [21] is 100%. The Vd in series [22] is 0.18 L/kg. For the same molecule, the clearance in series [23] turned out to be 3.1 mL/min/kg.
Turning to `CCOc1ccc(-c2ccc(Cn3c(CC(C)(C)C(=O)[O-])c(SC(C)(C)C)c4cc(OCc5ccc(C)cn5)ccc43)cc2)cn1.[Na+]` [FIBOFLAPON SODIUM], the Cmax in series [18] turned out to be 12.2 µM. Moreover, in [19], the half-life was 2 h. Also, the AUC in series [20] came out at 26000 ng·h/mL. Further, in series [21], the bioavailability came to 76%. Besides, the Vd in series [22] is 0.7 L/kg. This molecule also came in with a clearance in [23] of 5.2 mL/min/kg.
